Test results from ChEMBL document CHEMBL4308841, “Synthesis, in vitro antiproliferative activity, and kinase inhibitory effects of pyrazole-containing diarylureas and diarylamides” (Eur J Med Chem, 2018).

Key:
[1] = test system: NCI-H522; assay: Growth inhibition of human NCI-H522 cells incubated for 48 hrs by sulforhodamine B assay; format: functional, cell-based; conditions: NCI-H522, 48 h
[2] = test system: HCT-15; assay: Growth inhibition of human HCT15 cells incubated for 48 hrs by sulforhodamine B assay; format: functional, cell-based; conditions: HCT-15, 48 h
[3] = test system: Malme-3M; assay: Growth inhibition of human MALME-3M cells incubated for 48 hrs by sulforhodamine B assay; format: functional, cell-based
[4] = test system: OVCAR-8; assay: Growth inhibition of human OVCAR8 cells incubated for 48 hrs by sulforhodamine B assay; format: functional, cell-based; conditions: OVCAR-8, 48 h
[5] = test system: Hs-578T; assay: Growth inhibition of human Hs578T cells incubated for 48 hrs by sulforhodamine B assay; format: functional, cell-based
[6] = test system: HCT-116; assay: Growth inhibition of human HCT116 cells assessed as cell growth at 0.01 uM incubated for 48 hrs by sulforhodamine B assay relative to control; format: functional; conditions: HCT-116, 48 h, read-out: Activity
[7] = test system: SNB-19; assay: Growth inhibition of human SNB19 cells assessed as cell growth at 0.01 uM incubated for 48 hrs by sulforhodamine B assay relative to control; format: functional; conditions: SNB-19, 48 h, read-out: Activity
[8] = test system: SNB-75; assay: Growth inhibition of human SNB75 cells assessed as cell growth at 0.01 uM incubated for 48 hrs by sulforhodamine B assay relative to control; format: functional; conditions: SNB-75, 48 h, read-out: Activity
[9] = test system: RXF 393; assay: Growth inhibition of human RXF393 cells assessed as cell growth at 0.01 uM incubated for 48 hrs by sulforhodamine B assay relative to control; format: functional; conditions: RXF 393, 48 h, read-out: Activity
[10] = test system: SR; assay: Growth inhibition of human SR cells assessed as cell growth at 0.1 uM incubated for 48 hrs by sulforhodamine B assay relative to control; format: functional; conditions: read-out: Activity
[11] = test system: NCI-H23; assay: Growth inhibition of human NCI-H23 cells assessed as cell growth at 0.1 uM incubated for 48 hrs by sulforhodamine B assay relative to control; format: functional; conditions: NCI-H23, 48 h, read-out: Activity
[12] = test system: HCT-116; assay: Growth inhibition of human HCT116 cells assessed as cell growth at 0.1 uM incubated for 48 hrs by sulforhodamine B assay relative to control; format: functional; conditions: HCT-116, 48 h, read-out: Activity
[13] = test system: SF-268; assay: Growth inhibition of human SF268 cells assessed as cell growth at 0.1 uM incubated for 48 hrs by sulforhodamine B assay relative to control; format: functional; conditions: SF-268, 48 h, read-out: Activity
[14] = test system: SNB-75; assay: Growth inhibition of human SNB75 cells assessed as cell growth at 0.1 uM incubated for 48 hrs by sulforhodamine B assay relative to control; format: functional; conditions: SNB-75, 48 h, read-out: Activity
[15] = test system: M14; assay: Growth inhibition of human M14 cells assessed as cell growth at 0.1 uM incubated for 48 hrs by sulforhodamine B assay relative to control; format: functional; conditions: M14, 48 h, read-out: Activity
[16] = test system: IGROV-1; assay: Growth inhibition of human IGROV1 cells assessed as cell growth at 0.1 uM incubated for 48 hrs by sulforhodamine B assay relative to control; format: functional; conditions: IGROV-1, 48 h, read-out: Activity
[17] = test system: OVCAR-3; assay: Growth inhibition of human OVCAR3 cells assessed as cell growth at 0.1 uM incubated for 48 hrs by sulforhodamine B assay relative to control; format: functional; conditions: OVCAR-3, 48 h, read-out: Activity
[18] = test system: SN12C; assay: Growth inhibition of human SN12C cells assessed as cell growth at 0.1 uM incubated for 48 hrs by sulforhodamine B assay relative to control; format: functional; conditions: read-out: Activity
[19] = test system: Hs-578T; assay: Growth inhibition of human Hs578T cells assessed as cell growth at 0.1 uM incubated for 48 hrs by sulforhodamine B assay relative to control; format: functional; conditions: read-out: Activity
[20] = test system: NCI-H23; assay: Growth inhibition of human NCI-H23 cells assessed as cell growth at 1 uM incubated for 48 hrs by sulforhodamine B assay relative to control; format: functional; conditions: NCI-H23, 48 h, read-out: Activity
[21] = test system: SNB-75; assay: Growth inhibition of human SNB75 cells assessed as cell growth at 1 uM incubated for 48 hrs by sulforhodamine B assay relative to control; format: functional; conditions: SNB-75, 48 h, read-out: Activity
[22] = test system: U-251; assay: Growth inhibition of human U251 cells assessed as cell growth at 1 uM incubated for 48 hrs by sulforhodamine B assay relative to control; format: functional; conditions: U-251, 48 h, read-out: Activity
[23] = test system: OVCAR-5; assay: Growth inhibition of human OVCAR5 cells assessed as cell growth at 1 uM incubated for 48 hrs by sulforhodamine B assay relative to control; format: functional; conditions: OVCAR-5, 48 h, read-out: Activity
[24] = test system: 786-0; assay: Growth inhibition of human 786-0 cells assessed as cell growth at 1 uM incubated for 48 hrs by sulforhodamine B assay relative to control; format: functional; conditions: 786-0, 48 h, read-out: Activity
[25] = test system: CAKI-1; assay: Growth inhibition of human Caki1 cells assessed as cell growth at 1 uM incubated for 48 hrs by sulforhodamine B assay relative to control; format: functional; conditions: CAKI-1, 48 h, read-out: Activity
[26] = test system: HCT-15; assay: Growth inhibition of human HCT15 cells assessed as cell growth at 100 uM incubated for 48 hrs by sulforhodamine B assay relative to control; format: functional; conditions: HCT-15, 48 h, read-out: Activity
[27] = test system: HT-29; assay: Growth inhibition of human HT-29 cells assessed as cell growth at 100 uM incubated for 48 hrs by sulforhodamine B assay relative to control; format: functional; conditions: HT-29, 48 h, read-out: Activity
[28] = test system: UO-31; assay: Growth inhibition of human UO31 cells assessed as cell growth at 100 uM incubated for 48 hrs by sulforhodamine B assay relative to control; format: functional; conditions: UO-31, 48 h, read-out: Activity
[29] = test system: BT-549; assay: Growth inhibition of human BT549 cells assessed as cell growth at 100 uM incubated for 48 hrs by sulforhodamine B assay relative to control; format: functional; conditions: BT-549, 48 h, read-out: Activity
[30] = test system: MDA-MB-468; assay: Growth inhibition of human MDA-MB-468 cells assessed as cell growth at 100 uM incubated for 48 hrs by sulforhodamine B assay relative to control; format: functional; conditions: MDA-MB-468, 48 h, read-out: Activity
[31] = test system: TK-10; assay: Growth inhibition of human TK10 cells assessed as cell growth at 10 uM incubated for 48 hrs by sulforhodamine B assay relative to control; format: functional; conditions: TK-10, 48 h, read-out: Activity
[32] = read-out: LC50 (the source's name)
[33] = read-out: pLC50 (the source's name) (converted)

O=C(Nc1cccc(-n2cc(-c3ccncc3)c(-c3cc(O)cc(Cl)c3)n2)c1)Nc1ccc(Cl)c(Cl)c1
GI50 ([1]; read-out: GI50): 1100 nM
CC50 [1, 32]: 5.99 µM
TGI ([1]; read-out: TGI): 31.4 µM
GI50 ([1]; read-out: pGI50 (converted)): 1100 nM
CC50 [1, 33]: 8.91 µM
TGI ([1]; read-out: pTGI (converted)): 3.16 µM
GI50 ([2]; read-out: GI50): 2100 nM
CC50 [2, 32]: > 100 µM
TGI ([2]; read-out: TGI): 80.4 µM
GI50 ([2]; read-out: pGI50 (converted)): 2090 nM
CC50 [2, 33]: > 100 µM
TGI ([2]; read-out: pTGI (converted)): 8.13 µM
GI50 ([3]; read-out: GI50): 1000 nM
CC50 [3, 32]: > 100 µM
TGI ([3]; read-out: TGI): 54 µM
GI50 ([3]; read-out: pGI50 (converted)): 1780 nM
CC50 [3, 33]: > 100 µM
TGI ([3]; read-out: pTGI (converted)): 5.25 µM
GI50 ([4]; read-out: GI50): 2020 nM
CC50 [4, 32]: > 100 µM
TGI ([4]; read-out: TGI): 50.6 µM
GI50 ([4]; read-out: pGI50 (converted)): 2000 nM
CC50 [4, 33]: > 100 µM
TGI ([4]; read-out: pTGI (converted)): 5.01 µM
GI50 ([5]; read-out: GI50): 3.23 µM
CC50 [5, 32]: > 100 µM
TGI ([5]; read-out: TGI): > 100 µM
GI50 ([5]; read-out: pGI50 (converted)): 3.24 µM
CC50 [5, 33]: > 100 µM
TGI ([5]; read-out: pTGI (converted)): > 100 µM
growth at 0.01 µM [6]: 101%
growth at 0.01 µM [7]: 97%
growth at 0.01 µM [8]: 94%
growth at 0.01 µM [9]: 93%
growth at 0.1 µM [10]: 90%
growth at 0.1 µM [11]: 97%
growth at 0.1 µM [12]: 102%
growth at 0.1 µM [13]: 98%
growth at 0.1 µM [14]: 52%
growth at 0.1 µM [15]: 93%
growth at 0.1 µM [16]: 101%
growth at 0.1 µM [17]: 101%
growth at 0.1 µM [18]: 95%
growth at 0.1 µM [19]: 92%
growth at 1 µM [20]: 96%
growth at 1 µM [21]: 63%
growth at 1 µM [22]: 74%
growth at 1 µM [23]: 56%
growth at 1 µM [24]: 71%
growth at 1 µM [25]: 54%
growth at 100 µM [26]: -23%
growth at 100 µM [27]: -70%
growth at 100 µM [28]: -27%
growth at 100 µM [29]: -38%
growth at 100 µM [30]: -17%

COc1cc(Cl)cc(-c2nn(-c3cccc(NC(=O)c4ccc(Cl)c(Cl)c4)c3)cc2-c2ccncc2)c1
growth at 10 µM [31]: 104%
